Experimental data reported in US20020071842A1, “Soluble CD1 compositions and uses thereof” (priority 2000, published 2002).
Entries after “also recorded” stand apart in the source; their conditions may differ.

How the values were obtained:
Test in all cases: Plate-bound mCD1d fusion protein hybridoma stimulation assay (IL-2 ELISA)
Assay type in all cases: cell-based, mouse
14S.10.C hybridoma = conditions: 14S.10 C diverse TCR hybridoma; plate-bound mCD1d-IgGFc2a fusion protein preincubated with lipid antigen
Procedure, shortened: (§1)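 Lipid antigens were incubated with protein A-immobilized mCD1d fusion protein at pH 7.2 (or in citrate/phosphate buffer of specified pH, then neutralized), typically 40:1 antigen:protein. After washing, 1×10^5 hybridoma cells per well were added overnight, 16-20 hr, and IL-2 in supernatants was read by ELISA.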

14S.15.A hybridoma = conditions: 14S.15.A diverse TCR hybridoma; plate-bound mCD1d-IgGFc2a fusion protein preincubated with lipid antigen
Procedure, shortened: as §1

14S.6.A hybridoma = conditions: 14S.6.A diverse TCR hybridoma; plate-bound mCD1d-IgGFc2a fusion protein preincubated with lipid antigen
Procedure, shortened: as §1

24.7.C hybridoma = conditions: 24 7.C NKT hybridoma; plate-bound mCD1d-IgGFc2a fusion protein preincubated with lipid antigen
Procedure, shortened: as §1

24.9.E hybridoma = conditions: for IL-2 secretion: 24.9 E NKT hybridoma, plate-bound mCD1d-IgGFc2a fusion protein preincubated with lipid antigen
Procedure, shortened: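 Protein A plates loaded with 400-600 ng/well mCD1d fusion protein plus lipid antigen (default 40:1 molar ratio), 24-48 hr at 37 °C, washed; hybridomas added at 1×10^5 cells/well for 16-20 hr. Supernatant IL-2 quantified by sandwich ELISA against murine IL-2 standard curve.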

DN32D3 hybridoma = conditions: DN32D3 NKT hybridoma; plate-bound mCD1d-IgGFc2a fusion protein preincubated with lipid antigen
Procedure, shortened: as §1

KT/12 hybridoma = conditions: KT/12 NKT hybridoma; plate-bound mCD1d-IgGFc2a fusion protein preincubated with lipid antigen
Procedure, shortened: as §1

KT/23 hybridoma = conditions: KT/23 NKT hybridoma; plate-bound mCD1d-IgGFc2a fusion protein preincubated with lipid antigen
Procedure, shortened: as §1

KT/7 hybridoma = conditions: KT/7 NKT hybridoma; plate-bound mCD1d-IgGFc2a fusion protein preincubated with lipid antigen
Procedure, shortened: as §1

VII68 hybridoma = conditions: VII68 diverse TCR hybridoma; plate-bound mCD1d-IgGFc2a fusion protein preincubated with lipid antigen
Procedure, shortened: as §1

VIII24 hybridoma = conditions: VIII24 diverse TCR hybridoma; plate-bound mCD1d-IgGFc2a fusion protein preincubated with lipid antigen
Procedure, shortened: as §1

XV104 hybridoma = conditions: XV104 diverse TCR hybridoma; plate-bound mCD1d-IgGFc2a fusion protein preincubated with lipid antigen
Procedure, shortened: as §1

XV19 hybridoma = conditions: XV19 diverse TCR hybridoma; plate-bound mCD1d-IgGFc2a fusion protein preincubated with lipid antigen
Procedure, shortened: as §1

Molecule	IL-2 secretion (14S.10.C hybridoma)	IL-2 secretion (14S.15.A hybridoma)	IL-2 secretion (14S.6.A hybridoma)	IL-2 secretion (24.7.C hybridoma)	IL-2 response to mCD1d fusion protein pre-treated with purified or synthetic lipid (24.9.E hybridoma; 24.9.E hybridoma)	enhancement of antigen recognition after pre-incubation at pH 4.0 compared to pH 7.5 (24.9.E hybridoma; 24.9.E hybridoma, 3:1 molar ratio of antigen to protein, citrate/phosphate buffer)	pre-incubation pH giving maximal IL-2 release (24.9.E hybridoma; 24.9.E hybridoma, pH 7.5 to pH 3.0 tested)	IL-2 when the 19G11 anti-mCD1d mAb was included (24.9.E hybridoma; 24.9.E hybridoma, representative experiment, 19G11 blocking antibody included) [pg/mL]	mean IL-2 produced (24.9.E hybridoma; 24.9.E hybridoma, representative experiment, mCD1d fusion protein pre-treated with antigen)	IL-2 secretion (24.9.E hybridoma)	IL-2 secretion (DN32D3 hybridoma)	IL-2 secretion (KT/12 hybridoma)	IL-2 secretion (KT/23 hybridoma)	IL-2 secretion (KT/7 hybridoma)	IL-2 secretion (VII68 hybridoma)	IL-2 secretion (VIII24 hybridoma)	IL-2 secretion (XV104 hybridoma)	IL-2 secretion (XV19 hybridoma)
CCCCCCCCCCCCCCCCCCCCCCCCCC(=O)N[C@@H](CO[C@H]1O[C@H](CO)[C@H](O)[C@H](O)[C@H]1O)[C@H](O)[C@H](O)CCCCCCCCCCCCCC [α-GalCer, α-galactosylceramide]	0 (A “0” indicates a mean of less than 50 pg/ml IL-2 was secreted)	+ (“+” indicates 50-250 pg/ml)	0 (A “0” indicates a mean of less than 50 pg/ml IL-2 was secreted)	+++ (“+++” indicates greater than 1000 pg/ml IL-2)	responded strongly; also recorded: secreted IL-2 efficiently	approximately 4 fold	4.0	103	2,089 pg/ml	+++ (“+++” indicates greater than 1000 pg/ml IL-2)	+++ (“+++” indicates greater than 1000 pg/ml IL-2)	+++ (“+++” indicates greater than 1000 pg/ml IL-2)	+++ (“+++” indicates greater than 1000 pg/ml IL-2)	+++ (“+++” indicates greater than 1000 pg/ml IL-2)	0 (A “0” indicates a mean of less than 50 pg/ml IL-2 was secreted)	0 (A “0” indicates a mean of less than 50 pg/ml IL-2 was secreted)	0 (A “0” indicates a mean of less than 50 pg/ml IL-2 was secreted)	0 (A “0” indicates a mean of less than 50 pg/ml IL-2 was secreted)
phosphatidylinositol [PI]	0 (A “0” indicates a mean of less than 50 pg/ml IL-2 was secreted)	0 (A “0” indicates a mean of less than 50 pg/ml IL-2 was secreted)	+ (“+” indicates 50-250 pg/ml)	0 (A “0” indicates a mean of less than 50 pg/ml IL-2 was secreted)	only modestly increased IL-2 secretion; also recorded: significantly less IL-2	–	–	–	–	+ (“+” indicates 50-250 pg/ml)	0 (A “0” indicates a mean of less than 50 pg/ml IL-2 was secreted)	+ (“+” indicates 50-250 pg/ml)	+ (“+” indicates 50-250 pg/ml)	0 (A “0” indicates a mean of less than 50 pg/ml IL-2 was secreted)	0 (A “0” indicates a mean of less than 50 pg/ml IL-2 was secreted)	0 (A “0” indicates a mean of less than 50 pg/ml IL-2 was secreted)	0 (A “0” indicates a mean of less than 50 pg/ml IL-2 was secreted)	0 (A “0” indicates a mean of less than 50 pg/ml IL-2 was secreted)
unglycosylated ceramide	0 (A “0” indicates a mean of less than 50 pg/ml IL-2 was secreted)	0 (A “0” indicates a mean of less than 50 pg/ml IL-2 was secreted)	0 (A “0” indicates a mean of less than 50 pg/ml IL-2 was secreted)	0 (A “0” indicates a mean of less than 50 pg/ml IL-2 was secreted)	neither the unglycosylated ceramide, nor the closely related β-linked form, β-GalCer, were recognized	–	–	–	–	0 (A “0” indicates a mean of less than 50 pg/ml IL-2 was secreted)	0 (A “0” indicates a mean of less than 50 pg/ml IL-2 was secreted)	0 (A “0” indicates a mean of less than 50 pg/ml IL-2 was secreted)	0 (A “0” indicates a mean of less than 50 pg/ml IL-2 was secreted)	0 (A “0” indicates a mean of less than 50 pg/ml IL-2 was secreted)	0 (A “0” indicates a mean of less than 50 pg/ml IL-2 was secreted)	0 (A “0” indicates a mean of less than 50 pg/ml IL-2 was secreted)	0 (A “0” indicates a mean of less than 50 pg/ml IL-2 was secreted)	0 (A “0” indicates a mean of less than 50 pg/ml IL-2 was secreted)
β-galactosylceramide [β-GalCer]	–	0 (A “0” indicates a mean of less than 50 pg/ml IL-2 was secreted)	0 (A “0” indicates a mean of less than 50 pg/ml IL-2 was secreted)	0 (A “0” indicates a mean of less than 50 pg/ml IL-2 was secreted)	neither the unglycosylated ceramide, nor the closely related β-linked form, β-GalCer, were recognized	–	–	–	–	0 (A “0” indicates a mean of less than 50 pg/ml IL-2 was secreted)	0 (A “0” indicates a mean of less than 50 pg/ml IL-2 was secreted)	0 (A “0” indicates a mean of less than 50 pg/ml IL-2 was secreted)	0 (A “0” indicates a mean of less than 50 pg/ml IL-2 was secreted)	0 (A “0” indicates a mean of less than 50 pg/ml IL-2 was secreted)	0 (A “0” indicates a mean of less than 50 pg/ml IL-2 was secreted)	0 (A “0” indicates a mean of less than 50 pg/ml IL-2 was secreted)	0 (A “0” indicates a mean of less than 50 pg/ml IL-2 was secreted)	0 (A “0” indicates a mean of less than 50 pg/ml IL-2 was secreted)
